Results as given in ChEMBL document CHEMBL1127891, “Benzopyran potassium channel activators related to cromakalim - heterocyclic amide replacements at position 4” (1994).

How the values were obtained:
Format in all cases: functional
Rattus norvegicus [1] = assay: Tested for antihypertensive activity expressed as max fall in BP in spontaneously hypertensive rats (SHR), at the dose of 3.0 mg/kg
Rattus norvegicus [2] = assay: Tested for antihypertensive activity expressed as max fall in BP in spontaneously hypertensive rats (SHR), at the dose of 1 mg/kg
Rattus norvegicus [3] = assay: Tested for antihypertensive activity expressed as max fall in BP in spontaneously hypertensive rats (SHR), at the dose of 10.0 mg/kg
Rattus norvegicus [4] = assay: Tested for antihypertensive activity expressed as max fall in BP in spontaneously hypertensive rats (SHR), at the dose of 0.3 mg/kg
Rattus norvegicus [5] = assay: Tested for antihypertensive activity expressed as max fall in BP in spontaneously hypertensive rats (SHR), at the dose of 0.1 mg/kg

Row | SMILES | Max fall in blood pressure (Rattus norvegicus [1]) | Max fall in blood pressure (Rattus norvegicus [2]) | Max fall in blood pressure (Rattus norvegicus [4]) | other results
1 | Cc1nc(N[C@@H]2c3cc(C#N)ccc3OC(C)(C)[C@H]2O)n(C)n1 | 37 | 22 |  | 
2 | Cn1nc(N[C@@H]2c3cc(C#N)ccc3OC(C)(C)[C@H]2O)nc1N |  |  |  | Max fall in blood pressure (Rattus norvegicus [3]): 33
3 | Cn1ncnc1N[C@@H]1c2cc(C#N)ccc2OC(C)(C)[C@H]1O |  | 35 | 22 | 
4 | CC1(C)Oc2ccc(C#N)cc2[C@@H](N2CCCC2=O)[C@@H]1O [CROMAKALIM] |  | 47 | 39 | Max fall in blood pressure (Rattus norvegicus [5]): 13
5 | CC1(C)Oc2ccc(C#N)cc2[C@@H](Nc2nc(N)no2)[C@@H]1O | 32 | 16 |  | 
6 | CC1(C)Oc2ccc(C#N)cc2[C@@H](Nc2n[nH]c(N)n2)[C@@H]1O | 19 |  |  | 
7 | Cc1noc(N[C@@H]2c3cc(C#N)ccc3OC(C)(C)[C@H]2O)n1 | 31 |  |  | 
8 | Cn1nc(N)nc1N[C@@H]1c2cc(C#N)ccc2OC(C)(C)[C@H]1O |  |  | 56 | Max fall in blood pressure (Rattus norvegicus [5]): 30
9 | C/N=C(\NC#N)N[C@@H]1c2cc(C#N)ccc2OC(C)(C)[C@H]1O |  | 41 | 16 | 
10 | CC1(C)Oc2ccc(C#N)cc2[C@@H](Nc2n[s+]([O-])nc2N)[C@@H]1O (some centres not stated) | 20 |  |  | 
